According to US6071884A, “Pharmaceutical compositions and therapeutic methods” (Kirin Beer Kabushiki Kaisha, priority 1992, dated 2000):

Key:
[1] = tested on: marrow cells (mononuclear cell fraction); experiment: Effect on marrow cell of monkey (3H-TdR uptake); type: cell-based, croo monkey; details: Primates, 96 h, percentage of control, 4 days
Experimental: Pharmacological Test 2: Effect on Marrow Cell of Monkey
Marrow cells were prepared from the humerus of a croo monkey, and an MNF obtained by fractionation using a Lymphoprep (Nycomed Pharma AS, Oslo, Norway) was used in the following experiment.
The MNF was suspended in an RPMI 1640 medium added with 10% blood plasma of a croo monkey to make its concentration 1×10^6 cells/ml.
10 μl/well of a sample with a predetermined concentration and 100 μl/well of the above-prepared MNF were placed on a round-bottomed 96 well plate, and incubated under the conditions of 37° C. and 5% CO2 for 4 days. Thereafter, 0.5 μCi/well of ^3 H-TdR was added. After 6 hours, the cells were harvested, and the amount of the ^3 H-TdR taken in the nuclei was measured by a liquid scintillation counter.

[2] = tested on: mononuclear cell fraction of human umbilical cord blood; experiment: Proliferation-stimulating effect on mononuclear cell fraction of human umbilical cord blood (3H-TdR uptake); type: cell-based; details: 96 h, percentage of control, 4 days
Summary of the method: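 Umbilical cord blood MNF (Lymphoprep) cultured at 1×10^6 cells/ml in RPMI 1640 with 10% autologous plasma with sample for 4 days at 37° C, 5% CO2. 0.5 μCi/well 3H-TdR then added for 8 h, and nuclear uptake measured by liquid scintillation counting.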

[3] = Life-span-increasing effect on irradiation of a lethal dose of radiation; type: in vivo, mouse (BDF1); details: 10 mice/group, 9 Gy X-ray, 0.1 mg/kg i.v. days 0, 4, 8
Experimental: Pharmacological Test 4: Life-Span-Increasing Effect on Irradiation of a Lethal Dose of Radiation
An experiment was carried out by using 6 week old female BDF1 mice purchased from Japan SLC Co., Ltd., with 10 mice made one group.
The entire bodies of the entire body of the mice were irradiated with 9 Gy of X-rays by using a Hitachi X-ray irradiator (MBR-1520R), and the day on which the X-ray was irradiated was referred to as "day 0".

blood platelets [4] = experiment: Blood-platelet-increasing effect upon normal mouse; type: in vivo, mouse (BDF1); details: normal mice; 6 days after 0.1 mg/kg i.v.; mean ± SD; vehicle per series 58.2, 63.0, 71.1
Summary of the method: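 Female BDF1 mice, 6 weeks old (5 per group), received test sample at 0.1 mg/kg into the caudal vein. Six days later, fundus-vein blood was taken and platelets counted on a multi-channel hemocytometer, compared against vehicle-treated animals.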

blood platelets [5] = experiment: Thrombocytopenia-inhibiting effect in X-ray-irradiated mice; type: in vivo, mouse (BDF1); details: 10 days after 5 Gy X-ray; 0.1 mg/kg i.v. within 2 h; mean ± SD; vehicle per series 10.3, 6.8, 6.7; non-treatment 68.2, 96.9, 73.0
Summary of the method: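 Female BDF1 mice, 6 weeks old, six per group, given 5 Gy whole-body X-ray, then 0.1 mg/kg i.v. via tail vein within 2 hours. Platelets counted by hemocytometer in fundus-vein blood 10 days later; untreated and vehicle groups run alongside.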

[6] = tested on: marrow cells (mononuclear cell fraction); experiment: Proliferation-stimulating effect on marrow cell of mouse (3H-TdR uptake); type: cell-based, mouse (BALB/c); details: percentage of control, 72 h
Summary of the method: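 Mononuclear marrow cell fraction from 7-week-old female BALB/c mouse thigh bone, 1.5×10^6 cells/ml in 10% FCS RPMI 1640, cultured with test sample 72 h at 37° C. ³H-thymidine (0.5 μCi/well) then added for 8 h; nuclear ³H-TdR uptake counted by liquid scintillation.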

Compound: CCCCCCCCCCCCCCCCCCCCCCCC[C@@H](O)C(=O)N[C@@H](CO[C@H]1O[C@H](CO)[C@H](O)[C@H](O)[C@H]1O)[C@H](O)[C@H](O)CCCCCCCCCCCCCC [Compound 25]
- activity at 0.1 µg/mL ([1]; 10^-1 μg/ml): 184%
- activity at 0.01 µg/mL ([1]; 10^-2 μg/ml): 186%
- activity at 0.1 µg/mL ([2]; 10^-1 μg/ml): 336%
- activity at 0.01 µg/mL ([2]; 10^-2 μg/ml): 319%
- activity at 0.001 µg/mL ([2]; 10^-3 μg/ml): 229%
- Number of Surviving Mice ([3]; day 10, controls per series 10, 10, 10, 10, 10, 8): 10 mice
- Number of Surviving Mice ([3]; day 15, controls per series 8, 9, 5, 5, 7, 1): 10 mice
- Number of Surviving Mice ([3]; day 20, controls per series 4, 5, 1, 2, 3, 0): 7 mice
- Number of Surviving Mice ([3]; day 25, controls per series 3, 3, 0, 0, 2, 0): 7 mice
- Number of Surviving Mice ([3]; day 30, controls per series 1, 1, 0, 0, 0, 0): 5 mice
- Number of Surviving Mice ([3]; day 35, all controls 0): 5 mice
- Number of Surviving Mice ([3]; day 40, all controls 0): 5 mice
- Number of Blood Platelets (blood platelets [4]): 124.1 ± 14.7 × 10^4 /μl
- Number of Blood Platelets (blood platelets [5]): 15.6 ± 5.3 × 10^4 /μl
- activity at 0.1 µg/mL ([6]; 10^-1 μg/ml): 331%
- activity at 0.01 µg/mL ([6]; 10^-2 μg/ml): 161%
- activity at 0.001 µg/mL ([6]; 10^-3 μg/ml): 153%
